This is an account of results in patent US12173001B1, “Pyrido[3,4-e][1,2,4]triazolo[4,3-c]pyrimidines as CK2 inhibitors” (King Faisal University, priority 2024, dated 2024).

SMILES strings stand for the structures.

One experiment has as its system HL60 (leukemia). Nature of the experiment: In vitro cytotoxic activity (MTT) assay, HL60. The format is cell-based. Conditions: Homo sapiens, HL-60, cells exposed for 96 hours, read-out: Cytotoxicity activity IC50 (50% inhibition of cell proliferation). The protocol:
(§1) Compounds 1-16 were screened for their in vitro cytotoxic activity utilizing a 3-(4,5-dimethyl-thiazol-2-yl)-2,5-diphenyltetrazolium bromide (MTT) assay against selected cancer human cell lines consisting of PC3 (prostate), HCT116 (colon), A375 (melanoma), H1299 (lung), MIAPaCa-2 (pancreas), HL60 (leukemia), MCF7 (breast), MDA-MB-231 (breast) (T. Mosmann, J. Immunol. Meth., 1983, 65, 55-63). The cells were cultured at 37° C. in RMPI1640 medium supplemented with 10% fetal bovine serum, 50 IU/mL penicillin, and […] streptomycin in a 5% CO2 incubator. All cells were sub-cultured 3 times/week by trypsinization. Viable cells were seeded and allowed to adhere for 12 hours before a test drug was added in 96-well plates at an initial density of 1.0×10^5 cells/mL. Tumor cell lines were separately exposed to various concentrations of the tested compounds followed by incubation at a temperature of 37° C. during 96 hours inside a medium of fresh RMPI 1640. Cells were subsequently incubated at 37° C. using MTT at 0.5 mg/mL during 4 hours. After removal of supernatant, formazan crystals were dissolved in isopropanol and the optical density was measured at 570 nm. CX-4945 was used as a positive control.

Another experiment relates to MCF7 (breast). Nature of the experiment: In vitro cytotoxic activity (MTT) assay, MCF7. The format is cell-based. As to conditions: Homo sapiens, cells exposed for 96 hours, read-out: Cytotoxicity activity IC50 (50% inhibition of cell proliferation). The protocol: as §1
The subject of a further experiment is HCT116 (colon). Nature of the experiment: In vitro cytotoxic activity (MTT) assay, HCT116. The format is cell-based. As to conditions: Homo sapiens, HCT-116, cells exposed for 96 hours, read-out: Cytotoxicity activity IC50 (50% inhibition of cell proliferation). The protocol:
as §1

The test system of another experiment is MDA-MB-231 (breast). Nature of the experiment: In vitro cytotoxic activity (MTT) assay, MDA-MB-231. The format is cell-based. As to conditions: Homo sapiens, cells exposed for 96 hours, read-out: Cytotoxicity activity IC50 (50% inhibition of cell proliferation). The protocol:
as §1

A further experiment concerns the target T1, recombinant human CK2 (Homo sapiens, UniProt P68400).
T1 construct: purchased Millipore
The experiment can be described thus: CK2 Kinase Assay (33P-ATP, filter plate). The format is biochemical. As to conditions: final ATP concentration 15 μM, 10 min at 30° C.; read-out: protein kinase CK2 activity IC50. The protocol: CK2 Kinase Assay was conducted using the protocol as described in Pierre F. et al; J. Med. Chem. 2011, 54, 635-654. The tested compounds in aqueous solution were added at a volume of 10 μL to a reaction mixture comprising 10 μL of assay dilution buffer (ADB; 20 mM MOPS, pH 7.2, 25 mM β-glycerol phosphate, 5 mM EGTA, 1 mM sodium orthovanadate, and 1 mM dithiothreitol), 10 μL of substrate peptide (RRRDDDSDDD (SEQ 1), dissolved in ADB at a concentration of 1 mM), 10 μL of recombinant human CK2 (RROP-holoenzyme, 25 ng dissolved in ADB; Millipore). Reactions were initiated by the addition of 10 μL of ATP solution (90% 75 mMMgCl2, 75 μM ATP (final ATP concentration: 15 μM) dissolved in ADB; 10% [γ-33P] ATP (stock 1mCi/100 μL; 3000 Ci/mmol (Perkin-Elmer) and maintained for 10 min at 30° C. The reactions were quenched with 100 μL of 0.75% phosphoric acid and then transferred to and filtered through a phosphor cellulose filter plate (Millipore). After washing each well five times with 0.75% phosphoric acid, the plate was dried under vacuum for 5 min and, following the addition of 15 μL of scintillation fluid to each well, the residual radioactivity was measured using a Wallac luminescence counter. The IC50 values were derived from eight concentrations of test inhibitors.

The next experiment deals with PC3 (prostate). The experiment can be described thus: In vitro cytotoxic activity (MTT) assay, PC3. The format is cell-based. As to conditions: Homo sapiens, Prostate cell, cells exposed for 96 hours, read-out: Cytotoxicity activity IC50 (50% inhibition of cell proliferation). The protocol: as §1
The test system of another experiment is H1299 (lung). The experiment can be described thus: In vitro cytotoxic activity (MTT) assay, H1299. Conditions: Homo sapiens, NCI-H1299, cells exposed for 96 hours, read-out: Cytotoxicity activity IC50 (50% inhibition of cell proliferation). The format is cell-based. The protocol:
as §1

The next experiment concerns MIAPaCa-2 (pancreas). The experiment can be described thus: In vitro cytotoxic activity (MTT) assay, MIAPaCa-2. The format is cell-based. Conditions: Homo sapiens, MIA PaCa-2, cells exposed for 96 hours, read-out: Cytotoxicity activity IC50 (50% inhibition of cell proliferation). The protocol: as §1
The next experiment has as its system A375 (melanoma). The experiment can be described thus: In vitro cytotoxic activity (MTT) assay, A375. The format is cell-based. As to conditions: Homo sapiens, A-375, cells exposed for 96 hours, read-out: Cytotoxicity activity IC50 (50% inhibition of cell proliferation). The protocol:
as §1

T1 sequence (P68400 whole entry): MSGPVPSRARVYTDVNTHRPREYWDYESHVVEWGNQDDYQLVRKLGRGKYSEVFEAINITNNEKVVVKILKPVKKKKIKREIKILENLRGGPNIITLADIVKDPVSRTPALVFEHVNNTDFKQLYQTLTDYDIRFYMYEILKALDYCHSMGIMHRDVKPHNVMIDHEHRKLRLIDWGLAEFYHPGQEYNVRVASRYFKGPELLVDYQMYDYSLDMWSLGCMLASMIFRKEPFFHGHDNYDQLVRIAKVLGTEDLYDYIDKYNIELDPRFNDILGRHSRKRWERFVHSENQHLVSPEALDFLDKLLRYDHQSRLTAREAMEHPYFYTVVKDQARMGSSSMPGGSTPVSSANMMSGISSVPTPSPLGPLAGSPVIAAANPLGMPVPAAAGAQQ
T1 sequence (P67870 whole entry partner): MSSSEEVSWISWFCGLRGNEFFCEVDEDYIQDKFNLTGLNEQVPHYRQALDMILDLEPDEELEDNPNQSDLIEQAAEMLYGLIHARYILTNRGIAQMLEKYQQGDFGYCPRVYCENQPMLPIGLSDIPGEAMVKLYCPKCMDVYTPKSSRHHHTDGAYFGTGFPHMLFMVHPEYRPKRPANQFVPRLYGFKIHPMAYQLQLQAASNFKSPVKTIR

As to `O=C(O)c1nnc2c3cnccc3nc(Nc3cccc(Cl)c3)n12` [Compound 1, 5-((3-chlorophenyl)amino)pyrido[3,4-e][1,2,4]triazolo[4,3-c]pyrimidine-3-carboxylic acid], the IC50 in the experiment with HL60 (leukemia) is 5.8 µM; in the experiment on MCF7 (breast) it was 4.9 µM; in the experiment with HCT116 (colon), 2.8 µM; with MDA-MB-231 (breast), 4.5 µM; at recombinant human CK2, 0.032 µM; in the experiment with PC3 (prostate), 1.5 µM. Further, the figures for the IC50 in the experiment with H1299 (lung), with MIAPaCa-2 (pancreas) and with A375 (melanoma) were 3.1 µM, 1.3 µM and 5.4 µM, respectively.
